Laboratory results taken from patent US7691572B2, “Method and kit for detecting resistance to antiviral drugs” (priority 1998, dated 2010).

Assays:
[1] = tested on: plasma HIV-1 reverse transcriptase; test: Amp-RT assay, inhibition by 3TC-TP, plasma samples of patients; format: biochemical; settings: for Inhibition of RT(%): 5 uM 3TC-TP
Description: The phenotypic assay used in this example was based on the analysis of the susceptibility of HIV-1 reverse transcriptase activity from plasma to inhibition by 3TC-TP.
For culture supernatant, 10 μl were directly used for the reverse transcriptase reaction. The analysis of phenotypic resistance in plasma samples was made in plasma-free virus pellets as described in the protocol set forth in FIG. 1B.
Amp-RT detects reverse transcriptase activity by using a heterologous RNA template derived from the encephalomyocarditis virus (EMCV), a complementary DNA oligoprimer, and PCR amplification of reverse transcriptase-generated EMCV cDNA. […] To determine the susceptibility of the reverse transcriptase to 3TC-TP, an additional Amp-RT reaction was made in the presence of 3TC-TP, with concentrations of 3TC-TP ranging from 0.1 to 10 μM. […] PCR amplification of reverse transcriptase products was made as follows after the addition of 200 μM of each dNTP. A volume of 50 μl of PCR buffer containing 2.5 units of Taq polymerase, 100 ng of the sense primer EMCF1, and 200 μM of each dNTP was added to the reverse transcriptase mixture.
A total of 30 EDTA-plasma samples from 15 HIV-1-infected patients from the Veteran Administration Medical Center, Decatur, Ga., were studied. The samples were collected from patients before and during anti-retroviral therapy with 3TC. The Amp-RT-based phenotypic assay was done under code with respect to date of serial bleed and reverse transcriptase genotype. One plasma specimen from a blood donor who tested antibody negative for HIV-1/2, HTLV-I/II was used as an assay negative control.

HIV-1 RT = test: Amp-RT assay, AZT-TP and other NRTI-TPs, reference viruses; format: biochemical; settings: for % inhibition (SEM) / inhibition of RT activity / inhibition of activity: 1 μM AZT-TP; for inhibition of RT activity: ~1.882×10^−7 to ~1.882×10^−5 units of RT activity per ml
[2] = 5 μM 3TC-TP, pretreatment samples (n=12)
[3] = sample 1E, 12 weeks, AZT/3TC, V/M184
[4] = sample 1F, 18 weeks, AZT/3TC, V184
[5] = sample 2F, 12 weeks, AZT/3TC, V184
[6] = sample 3F, 12 weeks, AZT/3TC, M/V184
[7] = sample 3G, 21 weeks, AZT/3TC, V184
[8] = sample 6B, 12 weeks, AZT/3TC, V184
[9] = sample 8B, 8 weeks, AZT/3TC, V184
[10] = sample 9F, 12 weeks, AZT/3TC, V184
[11] = sample 10A, 4 weeks, AZT/3TC, M184
[12] = sample 10C, 12 weeks, AZT/3TC, M/V184
[13] = sample 10G, 52 weeks, AZT/3TC, V184
[14] = sample 11A, 12 weeks, AZT/3TC, V/M184
[15] = sample 11C, 36 weeks, AZT/3TC, V184
[16] = sample 12E, 28 weeks, AZT/3TC, V184
[17] = sample 13A, Pre, d4T, M184, N69, R70
[18] = sample 13F, 60 weeks, d4T/3TC/IND, V184
[19] = sample 14A, 1 week, AZT/3TC, M184, D69
[20] = sample 14F, 44 weeks, IND/3TC, V184
[21] = sample 15A, Pre, AZT, M184, D69
[22] = sample 15D, 40 weeks, AZT/3TC/IND, V184
[23] = 5 μM 3TC-TP, samples with 184V only
[24] = 5 μM 3TC-TP, samples with mixtures of wild type and resistant genotypes
[25] = MNR HIV-1SUM12 (F77L, F116Y, Q151M)
[26] = MNR HIV-1SUM13 (A62V, V75I, F77L, F116Y, Q151M)
[27] = classical AZT-resistant HIV-1 R598 (D67N, V106A, L210W, L214F, T215Y)
[28] = classical AZT-resistant HIV-1RTMC/MT2 (D67N, K70R, T215F, K219Q)

Nc1ccn([C@@H]2CS[C@H](COP(=O)(O)OP(=O)(O)OP(=O)(O)O)O2)c(=O)n1 [3TC-TP, 3TC-5′-triphosphate]
mean reverse transcriptase inhibition [1, 2]: 98.7% | median reverse transcriptase inhibition [1, 2]: 99.8% | Inhibition of RT(%) ([1]; sample 1B, Pre, AZT/ddC, M184): 100% | Inhibition of RT(%) [1, 3]: 75.6% | Inhibition of RT(%) [1, 4]: 75.9% | Inhibition of RT(%) ([1]; sample 2B, Pre, AZT/ddC, M184): 99.7% | Inhibition of RT(%) [1, 5]: 68% | Inhibition of RT(%) ([1]; sample 3B, Pre, AZT, M184): 99.4% | Inhibition of RT(%) [1, 6]: 92.3% | Inhibition of RT(%) [1, 7]: 0% | Inhibition of RT(%) ([1]; sample 4A, Pre, AZT, M184): 99.9% | Inhibition of RT(%) ([1]; sample 5A, Pre, AZT, M184): 100% | Inhibition of RT(%) ([1]; sample 6A, Pre, None, M184): 99.9% | Inhibition of RT(%) [1, 8]: 34.7% | Inhibition of RT(%) ([1]; sample 7A, Pre, None, M/I184): 100% | Inhibition of RT(%) ([1]; sample 8A, Pre, AZT, M184): 99.9% | Inhibition of RT(%) [1, 9]: 15% | Inhibition of RT(%) ([1]; sample 9A, Pre, d4T, M184): 97.8% | Inhibition of RT(%) [1, 10]: 47% | Inhibition of RT(%) [1, 11]: 87.8% | Inhibition of RT(%) [1, 12]: 0% | Inhibition of RT(%) [1, 13]: 0% | Inhibition of RT(%) [1, 14]: 29.1% | Inhibition of RT(%) [1, 15]: 58.5% | Inhibition of RT(%) ([1]; sample 12A, Pre, AZT, M184): 96.3% | Inhibition of RT(%) [1, 16]: 70% | Inhibition of RT(%) [1, 17]: 95.9% | Inhibition of RT(%) [1, 18]: 0% | Inhibition of RT(%) [1, 19]: 94.7% | Inhibition of RT(%) [1, 20]: 0% | Inhibition of RT(%) [1, 21]: 95.5% | Inhibition of RT(%) [1, 22]: 0% | reverse transcriptase inhibition values ([1]; 5 μM 3TC-TP, samples after 1 to 60 weeks of therapy with 3TC (n=18)): less than 95% | mean inhibition [1, 23]: 30.8% | median inhibition [1, 23]: 24.9% | mean inhibition [1, 24]: 49.3% | median inhibition [1, 24]: 52.4% | RT activity With 3TC-TP (5 uM) [1, 3]: 5.1 × 10^−7 units/ml | RT activity With 3TC-TP (5 uM) [1, 4]: 3.3 × 10^−8 units/ml | RT activity With 3TC-TP (5 uM) ([1]; sample 2B, Pre, AZT/ddC, M184): 6.3 × 10^−9 units/ml | RT activity With 3TC-TP (5 uM) [1, 5]: 4.7 × 10^−7 units/ml | RT activity With 3TC-TP (5 uM) ([1]; sample 3B, Pre, AZT, M184): 1.7 × 10^−8 units/ml | RT activity With 3TC-TP (5 uM) [1, 6]: 1.2 × 10^−9 units/ml | RT activity With 3TC-TP (5 uM) [1, 7]: 1.0 × 10^−8 units/ml | RT activity With 3TC-TP (5 uM) ([1]; sample 4A, Pre, AZT, M184): 1.2 × 10^−10 units/ml | RT activity With 3TC-TP (5 uM) ([1]; sample 6A, Pre, None, M184): 3.6 × 10^−8 units/ml | RT activity With 3TC-TP (5 uM) [1, 8]: 1.5 × 10^−5 units/ml | RT activity With 3TC-TP (5 uM) ([1]; sample 8A, Pre, AZT, M184): 5.7 × 10^−8 units/ml | RT activity With 3TC-TP (5 uM) [1, 9]: 4.3 × 10^−5 units/ml | RT activity With 3TC-TP (5 uM) ([1]; sample 9A, Pre, d4T, M184): 6.3 × 10^−8 units/ml | RT activity With 3TC-TP (5 uM) [1, 10]: 1.1 × 10^−6 units/ml | RT activity With 3TC-TP (5 uM) [1, 11]: 9.1 × 10^−6 units/ml | RT activity With 3TC-TP (5 uM) [1, 12]: 1.9 × 10^−7 units/ml | RT activity With 3TC-TP (5 uM) [1, 13]: 3.5 × 10^−5 units/ml | RT activity With 3TC-TP (5 uM) [1, 14]: 1.3 × 10^−7 units/ml | RT activity With 3TC-TP (5 uM) [1, 15]: 7.0 × 10^−8 units/ml | RT activity With 3TC-TP (5 uM) ([1]; sample 12A, Pre, AZT, M184): 9.2 × 10^−7 units/ml | RT activity With 3TC-TP (5 uM) [1, 16]: 5.1 × 10^−7 units/ml | RT activity With 3TC-TP (5 uM) [1, 17]: 6.2 × 10^−8 units/ml | RT activity With 3TC-TP (5 uM) [1, 18]: 7.4 × 10^−5 units/ml | RT activity With 3TC-TP (5 uM) [1, 19]: 1.3 × 10^−8 units/ml | RT activity With 3TC-TP (5 uM) [1, 20]: 5.1 × 10^−9 units/ml | RT activity With 3TC-TP (5 uM) [1, 21]: 4.0 × 10^−6 units/ml | RT activity With 3TC-TP (5 uM) [1, 22]: 2.4 × 10^−10 units/ml | IC50 (HIV-1 RT; MNR HIV-1SUM8 (Q151M)): 0.9 µM | fold resistance (IC50) as compared to the mean IC values of WT HIV-1 (HIV-1 RT; MNR HIV-1SUM8 (Q151M)): (1.8) fold | IC50 (HIV-1 RT; [25]): 2.7 µM | fold resistance (IC50) as compared to the mean IC values of WT HIV-1 (HIV-1 RT; [25]): (5.4) fold | IC50 (HIV-1 RT; [26]): 3.3 µM | fold resistance (IC50) as compared to the mean IC values of WT HIV-1 (HIV-1 RT; [26]): (6.6) fold | IC50 (HIV-1 RT; WT HIV-1SUM9): 0.4 µM | IC50 (HIV-1 RT; WT HIV-1xxBRUpitt): 0.6 µM

Cc1cn([C@H]2C[C@H](N=[N+]=[N-])[C@@H](COP(=O)(O)OP(=O)(O)OP(=O)(O)O)O2)c(=O)[nH]c1=O [AZT-TP, AZT-triphosphate]
% inhibition (SEM) (HIV-1 RT; HIV-1LAI, WT): 99.9 (±0.02) % | % inhibition (SEM) (HIV-1 RT; HIV-1M184Vpitt, M184V): 91.1 (±3.3) % | % inhibition (SEM) (HIV-1 RT; HIV-1R598, D67N, V106A, L210W, L214F, T215Y): 97.8 (±2.2) % | % inhibition (SEM) (HIV-1 RT; HIV-1RTMC/MT-2, D67N, K70R, T215F, K219Q): 91.5 (±8.5) % | % inhibition (SEM) (HIV-1 RT; HIV-1RTMDRI/MT-2, M41L, L74V, V106A, T215Y): 94.6 (±5.4) % | % inhibition (SEM) (HIV-1 RT; HIV-1RTMF/MT-2, T215Y): 96 (±4) % | % inhibition (SEM) (HIV-1 RT; HIV-1SUM8, Q151M): 26.6 (±6.1) % | inhibition of RT activity (HIV-1 RT; HIV-1SUM8): 50% | % inhibition (SEM) (HIV-1 RT; HIV-1SUM9, WT): 95.8 (±1.4) % | % inhibition (SEM) (HIV-1 RT; HIV-1SUM12, F77L, F116V, Q151M): 13.1 (±5.5) % | inhibition of RT activity (HIV-1 RT; HIV-1SUM12 and HIV-1SUM13): < 15% | % inhibition (SEM) (HIV-1 RT; HIV-1SUM13, A62V, V75I, F77L, F116Y, Q151M): 12.9 (±2.8) % | % inhibition (SEM) (HIV-1 RT; HIV-1xxBRUpitt, WT): 93.5 (±6.5) % | inhibition of RT activity (HIV-1 RT; WT HIV-1SUM9): > 85% | inhibition of activity (HIV-1 RT; WT RT (HIV-1SUM9) alone): 91% | inhibition of activity (HIV-1 RT; mixture containing 10% MNR HIV-1SUM13 in WT HIV-1SUM9): 17% | inhibition of activity (HIV-1 RT; mixture containing 30% or more of MNR HIV-1): No inhibition | reduction of the level of DNA products (HIV-1 RT; 1 μM AZT-triphosphate, MNR strains): ≤ 30% | reduction of the amount of DNA products (HIV-1 RT; 1 μM AZT-triphosphate, wild-type and classical reverse transcriptase mutant strains): ≥ 90% | IC50 (HIV-1 RT; MNR HIV-1SUM8 (Q151M)): 2.5 µM | IC90 (HIV-1 RT; MNR HIV-1SUM8 (Q151M)): 4.5 µM | fold resistance (IC90) as compared to the mean IC values of WT HIV-1 (HIV-1 RT; MNR HIV-1SUM8 (Q151M)): (4.7) fold | IC50 (HIV-1 RT; [25]): 11 µM | IC90 (HIV-1 RT; [25]): 18 µM | fold resistance (IC90) as compared to the mean IC values of WT HIV-1 (HIV-1 RT; [25]): (18.6) fold | IC50 (HIV-1 RT; [26]): 18 µM | IC90 (HIV-1 RT; [26]): 45 µM | fold resistance (IC90) as compared to the mean IC values of WT HIV-1 (HIV-1 RT; [26]): (46.6) fold | IC50 (HIV-1 RT; WT HIV-1LAI): 0.5 µM | IC90 (HIV-1 RT; WT HIV-1LAI): 0.9 µM | IC50 (HIV-1 RT; WT HIV-1SUM9): 0.5 µM | IC90 (HIV-1 RT; WT HIV-1SUM9): 1 µM | IC50 (HIV-1 RT; [27]): 0.5 µM | IC90 (HIV-1 RT; [27]): 1 µM | IC50 (HIV-1 RT; [28]): 0.5 µM | IC90 (HIV-1 RT; [28]): 1 µM
